# Tested on: wild-type progesterone receptor (pSG5-Gal4-DBD-PR) and its mutants
# Format: cell-based
# Details: for activity in PR mutants as compared to wild-type PR, high ligand concentration: HeLa, Gal4-DBD-PR LBD mutants, ligand 10 μM
SMILES,activity in PR mutants as compared to wild-type PR,"activity in PR mutants as compared to wild-type PR, high ligand concentration"
"C[C@@H]1C[C@H]2[C@@H]3CCC4=CC(=O)C=C[C@]4(C)[C@@]3(F)[C@@H](O)C[C@]2(C)[C@@]1(O)C(=O)CO [DEX, Dexamethasone]",lowered below DMSO control by most mutations,
"C[C@]12CCC(=O)C[C@@H]1CC[C@@H]1[C@@H]2CC[C@]2(C)[C@@H](O)CC[C@@H]12 [DHT, Dihydrotestosterone]",,reduced activity
"C[C@]12CCC(=O)C=C1CC[C@@H]1[C@@H]2[C@@H](O)C[C@]2(C=O)[C@@H](C(=O)CO)CC[C@@H]12 [AS4, Aldosterone]",,reduced activity
"C[C@]12C=CC(=O)C=C1CC[C@@H]1[C@@H]2C(=O)C[C@@]2(C)[C@H]1CC[C@]2(O)C(=O)CO [PDN, Prednisone]",,additional reduction
"CC(=O)[C@H]1CC[C@H]2[C@@H]3CCC4=CC(=O)CC[C@]4(C)[C@H]3CC[C@]12C [STR, Progesterone]",lowered in all mutants,
"C[C@]12CCC(=O)C=C1CC[C@@H]1[C@@H]2[C@@H](O)C[C@@]2(C)[C@H]1CC[C@]2(O)C(=O)CO [HCY, Cortisol]",,reduced activity
